Laboratory results published in patent US20250320246A1, “3-AZASTEROID COMPOUNDS FOR THE TREATMENT OF DISEASES RELATED TO MITROCHONDRIAL FUNCTION” (NZP UK LIMITED, priority 2022, published 2025).

Tests used:
Type in all cases: cell-based, human
[1] = system: sporadic PD patient fibroblasts; assay: Cellular ATP levels in sporadic PD patient fibroblasts, full ATP assay; settings: Homo sapiens, Fibroblast, 24 h, 3 sporadic PD patient fibroblasts
[2] = system: sporadic Parkinson's disease patient fibroblast lines; assay: Mitochondrial respiration (oxygen consumption rate), Seahorse Mito Stress test; settings: 50 nM for 24 hours, sPD fibroblasts
Method: Oxygen consumption rate (OCR) was measured by the Agilent Seahorse Mito Stress test using a 24-well Agilent Seahorse XF analyzer machine (Agilent). Human fibroblasts where plated at a density of 60,000 cells per well. Cells were treated with compound 50 nM for 24 hours prior to measurement. 3 measurements of OCR were taken in each state: basal state, after addition of oligomycin (0.5 μM), FCCP (0.5 μM) and rotenone (1 μM). A cell count was then done on a fixed assay plate using a Hoechst dye (1 μM). Data presented is normalized to cell number.

[3] = system: iNeurons from sPD patients; assay: Cellular ATP in iNeurons (dopaminergic neurons derived from sPD patients)
Method: (§1) The fibroblasts lines and iNPC lines have previously been characterised and published in Carling et al, 2020.
(§2) Briefly, iNPCs are plated in a 6-well plate and cultured for 2 days in DMEM/F-12 medium with Glutamax™ supplemented with 1% NEAA, 2% B27 (Gibco) and 2.5 μM of DAPT. On day 3, DAPT is removed and the medium is supplemented with 1 μM smoothened agonist (SAG) and FGF8 (75 ng/ml) for additional 10 days. Neurons are replated at this stage. Subsequently SAG and FGF8 are withdrawn and replaced with BDNF (30 ng/ml), GDNF (30 ng/ml), TGF-b3 ([…]) and dcAMP (2 mM, Sigma) for 15 days, as previously described Schwartzentruber et al, 2020 and Carling et al, 2020. Dopaminergic neurons were treated with compounds at concentrations of 0.1 nM, 1 nM, 3 nM, 10 nM, 30 nM and 100 nM dosing every 3 days for the last 12 days of differentiation.
(§3) iNeurons were treated every 3 days for the last 12 days of the differentiation protocol. Cells are plated in 96 well plates; for live imaging cells are incubated for one hour at 37° C. with 80 nM tetramethlyrhodamine (TMRM), 1 μM LysoTracker® Green (Invitrogen) and Hoechst Stain solution (Sigma) at 1 μM before imaging using Opera Phenix™. Cellular ATP measurements are undertaken using ATPlite kit (Perkin Elmer) as per manufacturer's instructions. Mitochondrial reactive oxygen species generation was assessed using mitochondrial NpFR2 (probe; a kind gift from Dr Liz New, University of Sydney, Australia) at 20 μM and Hoechst stain solution at 1 μM for 30 mins at 37° C., then the dyes are removed and cells images using Opera Phenix™. Images generated from the live imaging experiments were analysed using Harmony® (Perkin Elmer software). We developed protocols in order to segment nucleus, cell boundary and processes, mitochondria, lysosomes, autophagosomes. We only analysed the z projection images collected from the z stacks.

[4] = system: iNeurons from sPD patients; assay: Mitochondrial membrane potential (MMP) in iNeurons from sPD patients
Method: as §1, §2, §3

[5] = system: iNeurons from sPD patients; assay: Activated caspase 3 levels (apoptosis) in iNeurons from sPD patients
Method: as §1, §2
Cells are plated into 96 well plates and fixed using 4% paraformaldehyde for 30 minutes. After PBS washes cells are permeabilised using 0.1% Triton™ X-100 for 10 minutes and blocked using 5% goat serum for 1 hour. Cells are incubated with primary antibodies βIII tubulin (Millipore); activated caspase 3 (Cell Signaling); at 4° C. for 16 hours. Cells are washed using PBS-Tween® and incubated with Alexa Fluor™-conjugated secondary antibodies 488 and 568 (Invitrogen) and Hoescht (Sigma) 1 μM prior to imaging. Imaging was performed using the Opera Phenix™ high content imaging system (Perkin Elmer).

## C[C@H](CCCC(=O)O)[C@H]1CC[C@H]2[C@@H]3[C@@H](O)C[C@@H]4CNCC[C@]4(C)[C@H]3CC[C@]12C.Cl [Compound 28b, 3-Aza-7β-hydroxy-25-homo-5β-cholan-25-oic acid hydrochloride]
[1]; 8-point range 0.06 nM-300 nM
  EC50: 32.9 nM
[1]; max response with highest dose of compound (300 nM), read-out: ATP % of vehicle, top %
  Emax at 0.3 µM: 138%
[1]; max response with lowest dose of compound (0.06 nM), read-out: ATP % of vehicle, bottom %
  activity at 60 pM: 94.6%
[2]; p<0.05, vehicle sPD reduced 30% vs controls
  basal mitochondrial respiration: increases basal respiration in the sPD fibroblasts to control levels
[2]; to a lesser extent, vehicle sPD reduced 23% vs controls
  ATP linked respiration: Increases are also seen
[2]; to a lesser extent, vehicle sPD reduced 42% vs controls
  spare respiratory capacity: Increases are also seen
[3]; Homo sapiens, Neuron, sPD patient iNeurons, dosing every 3 days for last 12 days of differentiation
  EC50: 5 nM
[3]; both mitochondrial parameters (Table 3)
  effect on mitochondrial parameters in sPD derived dopaminergic neurons: provides a protective effect on both mitochondrial parameters
[3]; sPD patient iNeurons treated, untreated sPD patients 50
  ATP normalisation (% of controls): 94.3 % of controls
[4]; Homo sapiens, sPD patient iNeurons, dosing every 3 days for last 12 days of differentiation
  EC50: 8.2 nM
[4]; sPD patient iNeurons treated, untreated sPD patients 52
  MMP normalisation (% of controls): 76 % of controls
[5]; sPD derived dopaminergic neurons
  apoptosis levels (as measured by activated caspase 3 levels), in words: reducing apoptosis levels
[5]; sPD patient iNeurons treated, untreated sPD patients 162
  Activated caspase 3 levels: 138 % of level in iNeurons from Controls
